Laboratory results published in US9661853B2, “Molecules having pesticidal utility, and intermediates, compositions, and processes, related thereto” (Dow AgroSciences LLC, priority 2015, dated 2017).
Each block holds one compound with its values, some of them ahead of it.

Legend:
[1] = test system: Beet Armyworm (Spodoptera exigua, LAPHEG); experiment: Bioassay on Beet Armyworm (BAW), 128-well diet tray assay; format: in vivo; conditions: 168 h, 50 μg/cm^2 on artificial diet, second instar larvae, 25° C., five to seven days, average of eight wells, read-out: BAW % Control (or Mortality) rating
Protocol: (§1) Bioassays on Beet Armyworm (Spodoptera exigua, LAPHEG) (“BAW”) and Cabbage Looper (Trichoplusia ni, TRIPNI) (“CL”)
(§2) Certain molecules disclosed in this document were tested against BAW and CL using procedures described in the following examples. In the reporting of the results, the “BAW & CL Rating Table” was used (See Table Section).
Bioassays on BAW were conducted using a 128-well diet tray assay. One to five second instar BAW larvae were placed in each well (3 mL) of the diet tray that had been previously filled with 1 mL of artificial diet to which 50 μg/cm^2 of the test molecule (dissolved in 50 μL of 90:10 acetone-water mixture) had been applied (to each of eight wells) and then allowed to dry. Trays were covered with a clear self-adhesive cover, vented to allow gas exchange, and held at 25° C., 14:10 light-dark for five to seven days. Percent mortality was recorded for the larvae in each well; activity in the eight wells was then averaged. The results are indicated in the table entitled “Table ABC: Biological Results” (See Table Section).

[2] = test system: Cabbage Looper (Trichoplusia ni, TRIPNI); experiment: Bioassay on Cabbage Looper (CL), 128-well diet tray assay; format: in vivo; conditions: 168 h, 50 μg/cm^2 on artificial diet, second instar larvae, 25° C., five to seven days, average of eight wells, read-out: CL % Control (or Mortality) rating
Protocol: as §1, §2
Bioassays on CL were conducted using a 128-well diet tray assay. One to five second instar CL larvae were placed in each well (3 mL) of the diet tray that had been previously filled with 1 mL of artificial diet to which 50 μg/cm^2 of the test molecule (dissolved in 50 μL of 90:10 acetone-water mixture) had been applied (to each of eight wells) and then allowed to dry. Trays were covered with a clear self-adhesive cover, vented to allow gas exchange, and held at 25° C., 14:10 light-dark for five to seven days. Percent mortality was recorded for the larvae in each well; activity in the eight wells was then averaged. The results are indicated in the table entitled “Table ABC: Biological Results” (See Table Section).

[3] = test system: Yellow Fever Mosquito (Aedes aegypti, AEDSAE); format: in vivo; conditions: 4000 ppm DMSO master solution diluted, about 1 day-old larvae, room temperature, scored after 3 days
Protocol: Bioassays on Yellow Fever Mosquito (Aedes aegypti, AEDSAE) (“YFM”)
Certain molecules disclosed in this document were tested against YFM using procedures described in the following paragraph. In the reporting of the results, the “YFM Rating Table” was used (See Table Section).
Master plates containing 400 μg of a molecule dissolved in 100 μL of dimethyl sulfoxide (DMSO) (equivalent to a 4000 ppm solution) are used. A master plate of assembled molecules contains 15 μL per well. To this plate, 135 μL of a 90:10 water/acetone mixture is added to each well. A robot (Biomek® NXP Laboratory Automation Workstation) is programmed to dispense 15 μL aspirations from the master plate into an empty 96-well shallow plate (“daughter” plate). There are 6 reps (“daughter” plates) created per master. The created “daughter” plates are then immediately infested with YFM larvae.
The day before plates are to be treated, mosquito eggs are placed in Millipore water containing liver powder to begin hatching (4 g into 400 mL). After the “daughter” plates are created using the robot, they are infested with 220 μL of the liver powder/larval mosquito mixture (about 1 day-old larvae). After plates are infested with mosquito larvae, a non-evaporative lid is used to cover the plate to reduce drying. […] After 3 days, each well is observed and scored based on mortality. […]

SMILES: CCCc1ccc(C)cc1N1C(=O)CS/C1=N\C(=O)Nc1ccc(CNc2ncn(-c3ccc(OC(F)(F)F)cc3)n2)cc1 [F3, (Z)-1-(3-(5-Methyl-2-propylphenyl)-4-oxothiazolidin-2-ylidene)-3-(4-(((1-(4-(trifluoromethoxy)phenyl)-1H-1,2,4-triazol-3-yl)amino)methyl)phenyl)urea]
mortality at 50 µg/cm2 [1]: 50 to 100% | mortality at 50 µg/cm2 [2]: 50 to 100% | YFM % Control (or Mortality) rating [3]: A (80-100)

SMILES: CCCc1ccc(C)cc1N1C(=O)CS/C1=N\C(=O)Nc1ccc(CNc2ncn(-c3ccc(OC(F)(F)F)cc3)n2)cc1F [F5, (Z)-1-(2-Fluoro-4-(((1-(4-(trifluoromethoxy)phenyl)-1H-1,2,4-triazol-3-yl)amino)methyl)phenyl)-3-(3-(5-methyl-2-propylphenyl)-4-oxothiazolidin-2-ylidene)urea]
mortality at 50 µg/cm2 [1]: 50 to 100% | mortality at 50 µg/cm2 [2]: 50 to 100% | YFM % Control (or Mortality) rating [3]: A (80-100)

melting point: 174 to 176 °C
SMILES: CCCc1ccc(C)cc1N1C(=O)CS/C1=N\C(=O)Nc1ccc(CN(C)c2ncn(-c3ccc(OC(F)(F)F)cc3)n2)cc1F
